Measured values published in patent US5124319A, “Benzimidazole phosphono-amino acids” (American Home Products Corporation, priority 1991, dated 1992).
Counter-ions that a name gives are not always drawn. Like-named read-outs stand apart in the source and are kept apart here.

Assays:
NMDA receptor = assay: [3H]CPP binding assay (displacement of tritiated CPP in rat frontal cortex homogenates); conditions: [3H]CPP 8 nM, 23° C., 15 min, pH 7.6
Description: The compounds of the invention are tested for their NMDA competitive antagonist activity by their ability to displace tritiated 3-(2-carboxypiperazine-4-yl)propyl-1-phosphonic acid (CPP), a known competitive NMDA antagonist, in rat frontal cortex homogenates in the in vitro [^3 H]CPP binding assay.
Rats are decapitated and their brains are immediately removed, weighed and placed in approximately 15 volumes of ice cold 10% sucrose. Each brain is homogenized using a Potter Elvehjem glass homogenizer (12 strokes at 840 rpm) equipped with a Teflon pestle. The homogenate is then centrifuged at 1,000×g. for 10 minutes. The resulting pellet is discarded and the supernatant is centrifuged at 20,000×g. for 20 minutes. The crude mitochondrial pellet is resuspended in ice cold distilled water and dispersed using a Brinkmann Polytron (PT-10 at setting of 6 for 30 seconds). The suspension is centrifuged at 8,000×g. for 20 minutes. The resulting supernatant and buffy coat is centrifuged at 48,000×g.for 20 minutes. The final crude synaptic membrane pellet is resuspended in ice cold distilled water and centrifuged at 48,000×g. for 20 minutes.
To facilitate removal of endogenous glutamate, the membranes are resuspended in 15 volumes of ice cold 50 mMolar TRIS (pH 7.6) containing 0.04% Triton X-100. The suspension is incubated at 37° C. for 15 minutes, and then centrifuged at 20,000×g. for 20 minutes. The pellet is washed (i.e., resuspended in ice cold TRIS buffer and centrifuged at 20,000×g. for 20 minutes) twice. The membrane pellet is finally resuspended in 15 volumes ice cold 50 mMolar TRIS, distributed to several centrifuge tubes and centrifuged at 20,000×g. for 20 minutes and the pellets are frozen (-70° C.) for subsequent use in binding assays.
For the binding assay, the membrane pellets are thawed and resuspended in 15 volumes ice cold 50 mMolar TRIS (pH 7.6) buffer. Triplicate samples (1000 μl) of the membrane suspension containing between 0.2 and 0.4 mg protein/ml are incubated at 23° C. for 15 minutes with 8 nM [^3 H]CPP (New England Nuclear), one of various test solutions, and buffer in a final incubation volume of 2 ml using plastic minivials (Skatron). The samples are then centrifuged at 48,000×g. for 20 minutes and the supernatants discarded. The pellets are digested with tissue solubilizer (NCS, Amersham; 500 μl/sample) for 1 hour. Hydrochloric acid (100 μl of 4N) is added to each sample to reduce chemiluminescence during subsequent counting. Scintillation cocktail (Aqasol, DuPont; 3.2 ml) is added to each of the minivials which are then capped and shaken for 15 minutes prior to counting. The vials are placed into a Packard 460 CD (or equivalent) counter for determination of radioactivity.
Total specific binding is defined as total binding less the binding in the presence of 1 mMolar NMDA. Specific binding in the presence of a test drug is expressed as a percent of total specific binding when no drug is present. When test compounds are examined for a dose-response relationship, the results are then plotted as the logit of % binding vs. the log of the test drug concentration. Linear regression analysis then yields a straight line from which an IC50 with 95% confidence limits can be calculated.

NMDA-induced convulsions = assay: murine NMDA-induced convulsion assay (survival); type: in vivo, mice (male Swiss-albino, CD-1 strain); conditions: for ED50: Mus musculus, ip, 0.5 h
Description: The compounds of the invention are further tested for their in vivo ability to antagonize NMDA in the murine NMDA-induced convulsion assay.
Male Swiss-albino mice (CD-1 strain, Charles River) 18-22 grams in weight, after 18 hours of food deprivation, are habituated to an observation chamber for 30 minutes. The mice are pretreated with the representative test compound followed thirty minutes later with NMDA, 195 mg/kg, i.p., which is a dose normally causing 90% mortality resulting from motor seizures including uncontrollable hind leg scratching or limbs and/or torso muscle jerking with loss of righting reflex followed by death within the 30 minute observation period after NMDA administration. From the latter, the ED50 for survival is determined.
Data analyzed using the probit analysis program PS-NONLIN (Natural Response Rate Version). The output of this program contains the statistical significance of the slope of the dose-response and the ED 50% and 95% confidence limits for survival.

[1] = standard compounds, read-out: IC50 ± S.E.M.
[2] = reference compounds, i.p., 30 min before NMDA 195 mg/kg i.p., 95% confidence interval, read-out: ED50 % for survival
[3] = compounds of the invention, read-out: IC50
[4] = compounds of the invention, i.p., 30 min before NMDA 195 mg/kg i.p., read-out: ED50 (survival)

## NC(CCCCCP(=O)(O)O)C(=O)O (centres unmarked) [AP7, reference compound]
NMDA receptor; [1]
  IC50: 639 ± 129 nM

## O=C(O)C1CN(CCCP(=O)(O)O)CCN1 (centres unmarked) [CPP, 3-(2-carboxypiperazine-4-yl)propyl-1-phosphonic acid, reference compound]
NMDA-induced convulsions; [2]
  ED50: 1.04 mg/kg

## CN1C(=O)CN=C(c2ccccc2)c2cc(Cl)ccc21 [Diazepam, reference compound]
NMDA-induced convulsions; [2]
  ED50: 1.91 mg/kg

## Cl.Cl.N[C@H](Cc1nc2ccccc2n1CP(=O)(O)O)C(=O)O.O.O [Example 1, R-α-Amino-1-(phosphonomethyl)-1H-benzimidazole-2-propanoic acid, dihydrochloride, dihydrate]
NMDA-induced convulsions; read-out: ED50 (survival)
  ED50: 2 mg/kg
NMDA receptor; [3]
  IC50: 59 nM

## Cl.Cl.N[C@H](Cc1nc2cc(Cl)c(Cl)cc2n1CP(=O)(O)O)C(=O)O [Example 2, R-α-Amino-5,6-dichloro-1-(phosphonomethyl)-1H-benzimidazole-2-propanoic acid, dihydrochloride]
NMDA-induced convulsions; read-out: ED50 (survival)
  ED50: 2.7 mg/kg
NMDA receptor; [3]
  IC50: 18.2 nM

## Cc1cc2nc(C[C@@H](N)C(=O)O)n(CP(=O)(O)O)c2cc1C.Cl.Cl [Example 3, R-α-Amino-5,6-dimethyl-1-(phosphonomethyl)-1H-benzimidazole-2-propanoic acid, dihydrochloride]
NMDA-induced convulsions; 3 mg/kg, 30 min before NMDA 195 mg/kg i.p.
  % survival: 10%
NMDA receptor; [3]
  IC50: 123 nM

## N[C@H](Cc1nc2ccc(Cl)cc2n1CP(=O)(O)O)C(=O)O [Example 7, R-α-Amino-6-chloro-1-(phosphonomethyl)-1H-benzimidazole-2-propanoic acid, 0.8 hydrochloride, hydrate]
NMDA-induced convulsions; [4]
  ED50: < 5 mg/kg
NMDA receptor; [3]
  IC50: 21.7 nM

## Cl.N[C@H](Cc1nc2cc(Cl)ccc2n1CP(=O)(O)O)C(=O)O [Example 8, R-α-Amino-5-chloro-1-(phosphonomethyl)-1H-benzimidazole-2-propanoic acid hydrochloride]
NMDA-induced convulsions; read-out: ED50 (survival)
  ED50: 0.13 mg/kg
NMDA receptor; [3]
  IC50: 7 nM

## N[C@@H](Cc1nc2cc(Cl)c(Cl)cc2n1CP(=O)(O)O)C(=O)O [Example 9, S-α-Amino-5,6-dichloro-1-(phosphonomethyl)-1H-benzimidazole-2-propanoic acid, dihydrate]
NMDA-induced convulsions; [4]
  ED50: > 10 mg/kg
NMDA receptor; [3]
  IC50: 1010 nM

## N[C@@H](CCC(=O)O)C(=O)O [L. Glutamic Acid, reference compound]
NMDA receptor; [1]
  IC50: 64.3 ± 4.7 nM

## C[C@]12N[C@H](Cc3ccccc31)c1ccccc12 [MK-801, reference compound]
NMDA-induced convulsions; [2]
  ED50: 0.19 mg/kg
